Entries after “also recorded” stand apart in the source; their conditions may differ.
Columns and labels:
[1] = test system: lung inflammation upon intranasal crystals; assay: Exogenous uric acid crystals-induced lung inflammation and remodeling in mice; format: in vivo
Procedure: (§1) Bleomycin sulfate (200-300 μg or 10-15 mg/kg) from Bellon Laboratories (Montrouge, France) in saline, uric acid or allopurinol crystals (100-1000 μg or 5-50 mg/kg) in saline or saline alone are given through the airways by nasal instillation in a volume of 40 μt, under light ketamine-xylasine anaesthesia. The number of cells, chemokines, cytokines and TIMP-1 in the bronchoalveolar space and in the lung were evaluated as described (3). Allopurinol (Sigma-Aldrich) was injected at 500 μg or 25 mg/kg subcutaneously in 0.1-ml sterile NaCl, uricase (Fasturtec, Sanofi Synthelabo) given at 4 μg or 0.2 mg/kg by nasal instillation in 40 μt, at the time of bleomycin administration, at 6 and 9 h. In some experiments, the IL-1Ra (Anakinra, Amgen) was injected at 200 μg or 10 mg/kg subcutaneously in 0.1-ml sterile NaCl, at the time of MSU crystals administration, at 2 and 4 h.
Uric acid or allopurinol crystals were obtained by dissolving 1.68 mg of powder in 0.01 M NaOH preheated to 70° C. and added as required to maintain pH between 7.1 and 7.2. The solution was filtered and incubated at room temperature under slowly and continuously agitation, until crystals have formed. Crystals were washed twice with ethanol 100%, dried, autoclaved and kept sterile. The weight of dry crystals was determined under sterile conditions, crystals are resuspended in PBS by sonication and examined under phase microscopy.
(§2) Bleomycin sulfate (10 mg/kg) from Bellon Laboratories, uric acid or allopurinol crystals (5-50 mg/kg) in saline or vehicle alone were administered by intranasal instillation under light ketamine-xylasine anesthesia, and BAL and lung tissue assayed after 6 h (for uric acid crystal) or 24 h (for bleomycin) for markers of inflammation including cell recruitment and in particular neutrophil influx, chemokine and cytokine levels including KC, IL-6 and IL-1β and 14 days later for markers of tissue remodeling such as gelatinases MMP9 and MMP2 and their inhibitor TIMP-1. […] IL-1Ra (Anakinra, Amgen) was injected at 10 mg/kg subcutaneously.
(§3) After incision of the trachea, a plastic cannula was inserted and airspaces were washed using […] of PBS solution, heated to 37° C. The rib cage was then gently massaged to enable maximum cell collection. The fluid was collected by careful aspiration. […] The samples collected were dispatched in 2 fractions: the first one (1 ml corresponding to the 2 first lavages) was used for mediator measurement and the second one for the cell determination (4 ml). The first fraction was centrifuged (600 g for 10 min) and supernatant was fractionated and kept at −80° C. until mediator determination. The cell pellet was then resuspended in 0.4 ml PBS and, pooled with the second fraction and maintained at 4° C. until cell determination.
(§4) Total cell count was determined in BAL fluid using a particle counter (Z2 Coulter, Beckman Coulter). Differential cell counts were performed on cytospin preparations (Cytospin 3, Thermo Shandon) after staining with 4 min May-Grünwald stain (MG-1L, Sigma chemical, Saint Louis, USA) and 8 min in 95% Giemsa stain (GS-500, Sigma chemical, Saint Louis, USA). Differential cell counts were made on 100 cells using standard morphological criteria.
(§5) IL-1β, KC, IL-6 and TIMP-1 levels in BAL fluid or lung homogenate were determined using ELISA assay kits according to manufacturer's instructions (Mouse DuoSet, R&D system, Minneapolis, USA).

[2] = test system: bleomycin-induced lung inflammation; conditions: IL-1 receptor antagonist; published data (ref. 3), FIG. 1; cited from earlier work
[3] = test system: bleomycin-induced lung inflammation; assay: Bleomycin-induced acute lung inflammation in mice (24 h); format: in vivo; conditions: for Neutrophil recruitment in BALF / IL-1β production in lung: allopurinol 25 mg/kg s.c.; for Neutrophil recruitment in BALF: uricase 0.2 mg/kg (0, 6, 9 h) or z-YVAD-fmk 10 mg/kg i.p. (0, 4, 8 h); for Bleomycin-induced (acute) inflammation, overall: 24 h after BLM i.n., treated vs vehicle; for KC production in lung / TIMP-1 production in lung / IL-1β production in lung: lung homogenates 24 h after BLM 10 mg/kg i.n.; for KC production in lung / TIMP-1 production in lung: allopurinol 25 mg/kg s.c. or z-YVAD-fmk 10 mg/kg i.p.; for IL-1β production in lung: uricase 0.2 mg/kg or z-YVAD-fmk 10 mg/kg i.p.; for Uric acid levels in lung: allopurinol 25 mg/kg s.c. or uricase 0.2 mg/kg i.p. or i.n. at 0, 6 and 9 h; for Efficacy, repeated administrations versus higher doses: dose optimisation
Procedure: as §1, §2, §3
After BAL was performed, the whole lung removed and placed inside a microtube (Lysing matrix D, Q Bio Gene, Illkrich, France) with 1 ml of PBS, total lung tissue extract was prepared using a Fastprep® system (FP120, Q Bio Gene, Illkrich, France), the extract was then centrifuged and the supernatant stored at −80° C. before mediator measurement, MPO or collagen assay with Sircol Collagen Assay (France Biochem Division, France).
as §4, §5
Uric acid concentration was determined in bronchoalveolar lavages and lung homogenates using Amplex® Red Uric Acid/Uricase Assay Kit (Molecular Probe, Eugene). Briefly, uricase catalyzes the conversion of uric acid to allantoin, hydrogen peroxide (H2O2) and carbon dioxide. In the presence of horseradish peroxidase (HRP), H2O2 reacts stoichiometrically with Amplex Red reagent to generate the red-fluorescent oxidation product, resorufin, measured spectrophotometrically.

[4] = test system: bleomycin-induced repair and fibrosis; assay: Bleomycin-induced late inflammation, repair and fibrosis in mice (day 8/14); format: in vivo; conditions: for Lung fibrotic score (fibrosis with thickening of alveolar septae and inflammation, semi-quantitative) / Alveolar wall destruction, collagen deposition and lung fibrosis on lung sections / Pro-MMP-9 and active MMP-2 gelatinase activities in BALF (zymography) / Pulmonary alpha-I collagen mRNA content: day 14 after BLM 5 mg/kg i.n.; for Lung fibrotic score (fibrosis with thickening of alveolar septae and inflammation, semi-quantitative): Ashcroft score, two observers, vs B6 mice; for Alveolar wall destruction, collagen deposition and lung fibrosis on lung sections: CAB staining; for Pro-MMP-9 and active MMP-2 gelatinase activities in BALF (zymography): allopurinol 15 mg/kg s.c. or uricase 0.2 mg/kg i.p.; for Pulmonary alpha-I collagen mRNA content: real time quantitative PCR
Procedure: Mice were injected at day 0 with allopurinol (15 mg/kg, s.c.), uricase (0.2 mg/kg, i.p.) or saline, at 0, 6 and 9 h after BLM instillation (5 mg/kg, i.n.) and every second days during 8 or 14 days to evaluate remodeling and fibrosis. (A) Late inflammation measured as lymphocytes and neutrophils in the BALF at day 8. […] (D) Alpha1 (I) collagen I mRNA in lung was analyzed by real time quantitative polymerase chain reaction (PCR) amplification after uricase or allopurinol treatment 14 days after BLM administration. […] Chromotrope Aniline Blue (CAB) staining, 20× and 200× magnification. (F) The lesions induced by bleomycin were assessed semi-quantitatively by two pathologists as described (see Materials and methods). […] Results are expressed as mean lung fibrotic score±SD. Data represent mean values±SD from 3 independent experiments (n=6 mice per group).
as §2, §5
MMP-2 and MMP-9 levels were determined by gelatin zymography. Briefly, non-reduced supernatant samples of BAL fluid (15 μl) and standards (161-0305, Bio-Rad, Hercule, USA) were loaded onto 7% polyacrylamide gels (wt/vol) incorporating 0.1% (wt/vol) gelatin substrate. The MMP in the gelatinolytic bands were evaluated using as references recombinant murine Pro-MMP-9 (100 Kd) and recombinant murine Pro-MMP-2 (72 Kd). Proteins were subjected to electrophoresis at 20-30 mA for 3 h. The gel was then washed twice in 2.5% Triton (vol/vol), rinsed 3 times quickly with distillated water, and placed 3 times for 20 min in distillated water. Each different wash was performed under gentle stirring. Gels were incubated overnight at 37° C. in 50 mM Tris buffer (containing 5 mM CaCl2 and 2 μM ZnCL2). […] Only these MMP were quantified.
Quantification of alpha-I collagen was described previously (26). Briefly, frozen lung samples were ground to a fine powder, and homogenized in 2 ml of Trizol reagent (In vitrogen Life technology, Paisley, UK). After vigorous shaking, chloroform was added and the samples were centrifuged at 12,000 g for 20 min. Total RNA was precipitated with isopropanol and dissolved in RNAse-free water. RNAs were reverse-transcribed into cDNA using SuperScript™^II (Invitrogen Life technologies, Paisley, UK). Real-time quantitative PCR was performed by fluorescent dye SYBR Green methodology, using SYBR Green PCR Master Mix (Applied Biosystems) and the ABI Prism 7000 apparatus (perkin-Elmer, Foster city, CA, USA).
After BAL and lung perfusion, the large lobe was fixed in 4% buffered formaldehyde for standard microscopic analysis. 3-μm sections were stained with Hematoxylin and Eosin (H&E) or Chromotrope Aniline Blue (CAB) as described previously (3). The severity of the morphological changes (infiltration by neutrophils and mononuclear cells, destruction and thickening of the alveolar septae and fibrosis) were assessed semi-quantitatively using a numeric fibrotic scale (Ashcroft score) (27).

[5] = crystals 15 mg/kg i.n., kinetics
[6] = 24 h after BLM 10 mg/kg i.n., vs vehicle

Question: Which results are given for “Anakinra: IL-1 receptor antagonist, IL-1Ra (Anakinra, Amgen)”?
Answer: Inflammatory response to uric acid crystals (neutrophil influx in BAL) ([1]; 6 h after UA crystals 15 mg/kg i.n., anakinra 10 mg/kg): drastically reduced; Bleomycin-induced lung inflammation, overall [2]: attenuated

Question: For `Oc1ncnc2[nH]ncc12` [allopurinol crystals, allopurinol], which “Neutrophil recruitment into the BALF” value ([1]; 6 h after crystals instillation 15 mg/kg i.n.) is on record?
Answer: only little neutrophil recruitment

Question: What does the source list for `O=c1[nH]c(=O)c2[nH]c(=O)[nH]c2[nH]1` [uric acid crystals, uric acid]?
Answer: Time at which inflammation was resolved [1, 5]: 14 days; Time of maximum of inflammation (cell recruitment in BALF) [1, 5]: 6 h; Pulmonary TIMP-1 at day 14 ([1]; day 14 after crystals, data not shown): returned to basal levels; Cell recruitment in BALF (macrophages, neutrophils) ([1]; intranasal crystals, dose response): dose-dependent cell recruitment; Pulmonary TIMP-1 ([1]; lung homogenates after i.n. increasing doses of crystals): induced pulmonary TIMP-1 expression; also recorded: dose-dependently induced

Question: With z-YVAD-fmk as the molecule, how does the “Neutrophil recruitment in BALF” value [3, 6] read?
Answer: reduced

Question: And the “Bleomycin-induced (acute) inflammation, overall” value [3]?
Answer: reduced

Question: What about the “KC production in lung” value ([3]; vs vehicle) of the same molecule?
Answer: reduced

Question: And the “TIMP-1 production in lung” value ([3]; vs vehicle)?
Answer: reduced

Question: And the “IL-1β production in lung” value ([3]; vs vehicle)?
Answer: reduced

Question: For `Oc1ncnc2[nH]ncc12` [allopurinol], which “Total cell counts in BALF” value ([3]; 24 h after BLM 10 mg/kg i.n., allopurinol 25 mg/kg s.c. at 0, 6 and 9 h, vs vehicle) is on record?
Answer: reduced

Question: What about the “Uric acid levels in lung” value [3, 6] of the same molecule?
Answer: prevented the increase; also recorded: prevented uric acid increases

Question: What about the “Neutrophil recruitment in BALF” value [3, 6] of the same molecule?
Answer: reduced

Question: What about the “Bleomycin-induced (acute) inflammation, overall” value [3] of the same molecule?
Answer: greatly inhibited

Question: And the “IL-1β, KC and TIMP-1 in the BALF” value ([3]; after BLM, allopurinol treatment, data not shown)?
Answer: diminished

Question: And the “Efficacy, repeated administrations versus higher doses” value ([3]; data not shown)?
Answer: repeated administrations were more effective than higher doses

Question: What about the “KC production in lung” value ([3]; vs vehicle) of the same molecule?
Answer: diminished

Question: What about the “TIMP-1 production in lung” value ([3]; vs vehicle) of the same molecule?
Answer: diminished

Question: And the “KC production in lung” value ([3]; vs vehicle, listed as Allopurinol)?
Answer: reduced

Question: And the “IL-1β production in lung” value ([3]; vs vehicle)?
Answer: diminished

Question: And the “Late lymphocyte and neutrophil recruitment in the BALF” value ([4]; day 8 after BLM 5 mg/kg i.n., allopurinol 15 mg/kg s.c. at 0, 6, 9 h and every second day)?
Answer: reduced

Question: And the “Late production of TIMP-1 in lung homogenates and BALF” value ([4]; day 8 after BLM 5 mg/kg i.n., allopurinol 15 mg/kg s.c., BALF data not shown)?
Answer: inhibited

Question: What about the “Lung fibrotic score (fibrosis with thickening of alveolar septae and inflammation, semi-quantitative)” value [4] of the same molecule?
Answer: significantly reduced

Question: What about the “Alveolar wall destruction, collagen deposition and lung fibrosis on lung sections” value [4] of the same molecule?
Answer: significantly reduced

Question: What about the “Pro-MMP-9 and active MMP-2 gelatinase activities in BALF (zymography)” value [4] of the same molecule?
Answer: significantly reduced and less

Question: What about the “Pulmonary alpha-I collagen mRNA content” value [4] of the same molecule?
Answer: inhibited

B1: uricase: recombinant enzyme uricase (Fasturtec, Sanofi Synthelabo), degrades uric acid into soluble allantoin (protein, UniProt Q00511 2-302, looked up)
Uricase: SAVKAARYGKDNVRVYKVHKDEKTGVQTVYEMTVCVLLEGEIETSYTKADNSVIVATDSIKNTIYITAKQNPVTPPELFGSILGTHFIEKYNHIHAAHVNIVCHRWTRMDIDGKPHPHSFIRDSEEKRNVQVDVVEGKGIDIKSSLSGLTVLKSTNSQFWGFLRDEYTTLKETWDRILSTDVDATWQWKNFSGLQEVRSHVPKFDATWATAREVTLKTFAEDNSASVQATMYKMAEQILARQQLIETVEYSLPNKHYFEIDLSWHKGLQNTGKNAEVFAPQSDPNGLIKCTVGRSSLKSKL
Question: Which results are given for B1?
Answer: Uric acid levels in lung [3, 6]: reduced; Neutrophil recruitment in BALF [3, 6]: reduced; Efficacy, repeated administrations versus higher doses ([3]; data not shown): repeated administrations were more effective than higher doses; IL-1β production in lung ([3]; vs vehicle): reduced; Lung fibrotic score (fibrosis with thickening of alveolar septae and inflammation, semi-quantitative) [4]: significantly reduced; Alveolar wall destruction, collagen deposition and lung fibrosis on lung sections [4]: significantly reduced; Pro-MMP-9 and active MMP-2 gelatinase activities in BALF (zymography) [4]: significantly reduced and less; Pulmonary alpha-I collagen mRNA content [4]: inhibited
